Assay results taken from paper PMC10215143, “D- and N-Methyl Amino Acids for Modulating the Therapeutic Properties of Antimicrobial Peptides and Lipopeptides” (Antibiotics, 2023).
≈ marks a conversion by molar mass, not a printed value. Where “and” joins values, the source holds several entries; their conditions need not be identical. Equal entries are not always repeated. Where two headings read alike, the source gives them in different places. Where a SMILES comes first, the peptide text is derived from it. [ ]: non-standard residue; d: D form. The star is where a group is joined. NMeF = CN[C@@H](Cc1ccccc1)C(=O)O; NMeK = CN[C@@H](CCCCN)C(=O)O; Decanoyl = CCCCCCCCCC(=O)*

Tests used:
[1] = tested on: HeLa cells; conditions: 24 h
Method: We assessed the cytotoxicity of the compounds synthesized using HeLa cells.
The 3–4,5-dimethylthiazol-2,5-biphenyl tetrazolium bromide (MTT) cell viability assay was used to assess the cytotoxic activity of synthetic compounds against the human HeLa line. HeLa cells were seeded in 96-well plates at 1 × 10^5 cells/well, in which the peptide solution was added at different concentrations (3.125–400 μM) for 24 h of incubation. Next, MTT reagent (Sigma-Aldrich, St. Louis, MO, USA) was added, and the cells were incubated for 2 h. Then, 100 μL of dimethylsulfoxide (DMSO) was added to each well to dissolve formazan crystals, and the plates were read at 595 nm.

[2] = tested on: S. aureus RM * SA1 (Methicillin-resistant Staphylococcus aureus); conditions: S. aureus RM * SA1 (MRSA)
[3] = tested on: Gram (−) bacteria; conditions: for MIC Average Bacteria Gram (−): average over Gram (−) strains; for TI Bacteria Gram (−), HC50/MIC average: first value of the cell, a single value holds for HC50 and IC50 (400 µM used); for TI Bacteria Gram (−), IC50/MIC average: second value of the cell, HeLa IC50 based
Method: (§1) The MIC against bacterial strains was determined by the modified broth microtiter dilution method, following the procedures proposed by R.E.W. Hancock Laboratory for testing antimicrobial peptides. The target strains Escherichia coli ATCC 35218, Pseudomonas aeruginosa ATCC 27853, Enterococcus faecalis ATCC 29212, and Staphylococcus aureus ATCC 25923 belong to the American Type Culture Collection (ATCC). The Methicillin-Resistant Staphylococcus aureus BSF FBCB1313 strain (MRSA) was provided by the Clinical Bacteriology Section of FBCB-UNL. All strains were activated by culture for 24 h at 37 °C in Mueller-Hinton Broth (MHB) (Biokar Diagnostics, Cedex, France). Each inoculum was taken and adjusted to a cellular concentration of 5 × 10^5 colony-forming units (CFU)/mL in diluted MHB. All the peptides were dissolved in bovine serum albumin buffer with the addition of 0.01% acetic acid; 100 µL of each inoculum was added to 11 µL of peptide solution in serial 2-fold dilutions and were incubated for 18–24 h at 37 °C. The MIC was the lowest peptide concentration that inhibited visible growth of each bacterial strain. The test was conducted in triplicate.
(§2) The TI is defined as the relationship between the concentration that caused 50% of hemolysis (HC50) or a 50% reduction in HeLa cell viability and the MIC. Thus, higher TI values indicate greater antimicrobial specificity. […] The average MIC for each peptide against different microorganism groups was used to calculate the TI value.

[4] = tested on: Gram (+) bacteria; conditions: for MIC Average Bacteria Gram (+): average over Gram (+) strains; for TI Bacteria Gram (+), HC50/MIC average: first value of the cell, a single value holds for HC50 and IC50 (400 µM used); for TI Bacteria Gram (+), IC50/MIC average: second value of the cell, HeLa IC50 based
Method: as §1, §2

[5] = tested on: C. tropicalis DBFIQ 3; format: cell-based, Candida tropicalis; conditions: DBFIQ 3, 24 h
Method: (§3) Each inoculum was taken and the cellular concentration was adjusted to 2 × 10^3 CFU/mL in Sabouraud Dextrose Broth (SDB) (Biokar Diagnostics, Cedex, France). Next, 50 µL of these inocula was added to 50 µL of peptide solution in serial 2-fold dilutions. […] […] The test was conducted in triplicate.

[6] = tested on: Yeast; conditions: for MIC Average Yeast: 24 h; for TI Yeast, HC50/MIC average: first value of the cell, a single value holds for HC50 and IC50 (400 µM used); for TI Yeast, IC50/MIC average: second value of the cell, HeLa IC50 based
Method: Each inoculum was taken and the cellular concentration was adjusted to 2 × 10^3 CFU/mL in Sabouraud Dextrose Broth (SDB) (Biokar Diagnostics, Cedex, France). Next, 50 µL of these inocula was added to 50 µL of peptide solution in serial 2-fold dilutions. […] The MIC was considered the lowest peptide concentration that inhibited visible growth of each yeast strain. The test was conducted in triplicate.
as §2

[7] = tested on: E. faecalis ATCC 29212; format: cell-based, Enterococcus faecalis; conditions: ATCC 29212, 24 h
Method: (§4) The test was conducted in triplicate.

[8] = tested on: C. albicans PEEC 2; format: cell-based, Candida albicans; conditions: PEEC 2, 24 h
Method: as §3

[9] = tested on: Human erythrocytes; assay: Hemolysis assay; format: cell-based; conditions: human erythrocytes 0.4% (v/v), 37 °C, 60 min, 6.25 to 400 µM
Method: Hemolytic activity was determined using red blood cells and the hemoglobin released was measured at 405 nm. The percentage of hemolysis corresponding to the synthetic compounds is shown in Figure 1 while the HC50 values are provided in Table 3. […] Substitutions by N-methyl and D-amino acids reduced the hemolytic activity of the peptides and lipopeptides. […] For all the peptides and most of the lipopeptides, the HC50 values exceeded 400 μM. Indeed, the HC50 values were lower only for C10:0-A2(9-NMeLys) and C10:0-A2, which were around 300 and 200 μM, respectively.
Erythrocyte lysis was determined using the following previously optimized protocols. Human erythrocytes from a healthy voluntary donor were isolated by centrifugation (3000 rpm for 10 min) after washing three times with Physiological Solution (PS). Erythrocyte solutions were prepared at a concentration of 0.4% (v/v) in PS. Test tubes containing 200 µL of erythrocyte solution were incubated at 37 °C for 60 min with 200 µL of peptide solution at concentrations ranging from 6.25 to 400 µM. After centrifugation at 3000 rpm for 5 min, supernatant absorbance was measured at 405 nm. Lysis induced by 1% Triton X-100 was taken as a 100% reference value.

[10] = tested on: E. coli ATCC 35218; format: cell-based, Escherichia coli; conditions: ATCC 35218, 24 h
Method: as §4

[11] = tested on: S. aureus ATCC 25923; format: cell-based, Staphylococcus aureus; conditions: ATCC 25923, 24 h
Method: as §4

[12] = tested on: P. aeruginosa ATCC 27853; format: cell-based, Pseudomonas aeruginosa; conditions: ATCC 27853, 24 h
Method: as §4

[13] = Critical micelle concentration by conductimetry in Milli-Q water; format: physicochemical; conditions: 25 °C
Method: On the other hand, acylation confers that the peptide has capacity to self-assemble into nanostructures, resulting in a surfactant-like structure, which may affect the extent of peptide insertion and disruption of bacterial membrane integrity. In this work, the CMC of the lipopeptides was determined by conductimetry in Milli-Q water. All the lipopeptides adopted a micellar assembly with CMC values ranging from 2.0 to 5.7 mM (Table 1). […] This effect appeared to be more important when substitution by an N-methyl amino acid was performed on amino acids located on the non-polar face of the amphipathic helix (CMC values of C10:0-A2(8-NMePhe) = 2.01 mM). For all the lipopeptides, the CMC values remained above the MIC values, which could indicate that these molecules interact with the cell membrane as monomers and, consequently, that this property would not be necessary for antimicrobial activity. This notion is in concordance with reports in the literature on short cationic lipopeptides.
A lipopeptide solution was prepared in Milli Q water, and the specific conductivity of each lipopeptide solution, in a concentration ranging from 0.06 to 18 mg/mL, was measured using a drop conductivity meter (HORIBA, Kyoto, Japan), at 25 °C. Conductivity values were plotted vs. lipopeptide concentration (mS × cm^−1 vs. mg/mL), and the CMC was graphically determined.

| Structure (SMILES) | IC50 [1] | MIC [2] | MIC Average Bacteria Gram (−) [3] | TI Bacteria Gram (−), HC50/MIC average [3] | MIC Average Bacteria Gram (+) [4] | TI Bacteria Gram (+), HC50/MIC average [4] | MIC [5] | MIC Average Yeast [6] | TI Yeast, HC50/MIC average [6] | MIC [7] | MIC [8] | HC50 ± SD [9] | MIC [10] | MIC [11] | MIC [12] | CMC [13] | TI Bacteria Gram (−), IC50/MIC average [3] | TI Bacteria Gram (+), IC50/MIC average [4] | TI Yeast, IC50/MIC average [6] | IC50 ([1]; read-out: IC50 ± SD, HeLa cells, MTT, 3.125–400 μM) |
| --- | --- | --- | --- | --- | --- | --- | --- | --- | --- | --- | --- | --- | --- | --- | --- | --- | --- | --- | --- | --- |
| CCCCCCCCCC(=O)N[C@H](C(=O)N[C@@H](CCCCN)C(=O)N[C@@H](CCC(N)=O)C(=O)N[C@H](C(=O)N(C)[C@@H](CCCCN)C(=O)N[C@@H](CCCCN)C(=O)N[C@@H](CC(C)C)C(=O)N[C@@H](Cc1ccccc1)C(=O)N[C@@H](CCCCN)C(=O)N[C@@H](CCCCN)C(N)=O)C(C)C)[C@@H](C)CC [C10:0-A2(5-NMeLys), C10:0-IKQV(NMe-K)KLFKK-NH2] (Decanoyl-IKQV[NMeK]KLFKK-NH2) | > 400 µM | 5.6 µM (≈ 7.99 µg/mL) | 4.2 µM (≈ 5.99 µg/mL) | 95.2 | 6.5 µM (≈ 9.28 µg/mL) | 61.5 | 179.5 µM (≈ 256 µg/mL) | 179.5 µM (≈ 256 µg/mL) | 2.2 | 11.2 µM (≈ 16 µg/mL) | 179.5 µM (≈ 256 µg/mL) | >400 µM | 2.8 µM (≈ 4 µg/mL) | 2.8 µM (≈ 4 µg/mL) | 5.6 µM (≈ 7.99 µg/mL) | 3.73 mM |  |  |  |  |
| CCCCCCCCCC(=O)N[C@H](C(=O)N[C@@H](CCCCN)C(=O)N[C@@H](CCC(N)=O)C(=O)N[C@H](C(=O)N[C@@H](CCCCN)C(=O)N(C)[C@@H](CCCCN)C(=O)N[C@@H](CC(C)C)C(=O)N[C@@H](Cc1ccccc1)C(=O)N[C@@H](CCCCN)C(=O)N[C@@H](CCCCN)C(N)=O)C(C)C)[C@@H](C)CC [C10:0-A2(6-NMeLys), C10:0-IKQVK(NMe-K)LFKK-NH2] (Decanoyl-IKQVK[NMeK]LFKK-NH2) | 400 ± 29 µM | 5.6 µM (≈ 7.99 µg/mL) | 1.1 µM (≈ 1.57 µg/mL) | 363.6 | 4.2 µM (≈ 5.99 µg/mL) | 95.2 | 89.7 µM (≈ 128 µg/mL) | 67.3 µM (≈ 96 µg/mL) | 5.9 | 5.6 µM (≈ 7.99 µg/mL) | 44.9 µM (≈ 64.1 µg/mL) | >400 µM | 1.4 µM (≈ 2 µg/mL) | 1.4 µM (≈ 2 µg/mL) | 0.7 µM (≈ 0.999 µg/mL) | 3.63 mM |  |  |  |  |
| CCCCCCCCCC(=O)N[C@H](C(=O)N[C@@H](CCCCN)C(=O)N[C@@H](CCC(N)=O)C(=O)N[C@H](C(=O)N[C@@H](CCCCN)C(=O)N[C@@H](CCCCN)C(=O)N[C@@H](CC(C)C)C(=O)N(C)[C@@H](Cc1ccccc1)C(=O)N[C@@H](CCCCN)C(=O)N[C@@H](CCCCN)C(N)=O)C(C)C)[C@@H](C)CC [C10:0-A2(8-NMePhe), C10:0-IKQVKKL(NMe-F)KK-NH2] (Decanoyl-IKQVKKL[NMeF]KK-NH2) | > 400 µM | 5.6 µM (≈ 7.99 µg/mL) | 8.4 µM (≈ 12 µg/mL) | 47.6 | 6.5 µM (≈ 9.28 µg/mL) | 61.5 | 179.5 µM (≈ 256 µg/mL) | 179.5 µM (≈ 256 µg/mL) | 2.2 | 11.2 µM (≈ 16 µg/mL) | 179.5 µM (≈ 256 µg/mL) | >400 µM | 11.2 µM (≈ 16 µg/mL) | 2.8 µM (≈ 4 µg/mL) | 5.6 µM (≈ 7.99 µg/mL) | 2.01 mM |  |  |  |  |
| CCCCCCCCCC(=O)N[C@H](C(=O)N[C@@H](CCCCN)C(=O)N[C@@H](CCC(N)=O)C(=O)N[C@H](C(=O)N[C@@H](CCCCN)C(=O)N[C@@H](CCCCN)C(=O)N[C@@H](CC(C)C)C(=O)N[C@@H](Cc1ccccc1)C(=O)N(C)[C@@H](CCCCN)C(=O)N[C@@H](CCCCN)C(N)=O)C(C)C)[C@@H](C)CC [C10:0-A2(9-NMeLys), C10:0-IKQVKKLF(NMe-K)K-NH2] (Decanoyl-IKQVKKLF[NMeK]K-NH2) | > 400 µM | 2.8 µM (≈ 4 µg/mL) | 1.8 µM (≈ 2.57 µg/mL) | 165.8 | 3.7 µM (≈ 5.28 µg/mL) | 80.7 | 179.5 µM (≈ 256 µg/mL) | 134.6 µM (≈ 192 µg/mL) | 2.2 | 5.6 µM (≈ 7.99 µg/mL) | 89.7 µM (≈ 128 µg/mL) |  | 2.8 µM (≈ 4 µg/mL) | 2.8 µM (≈ 4 µg/mL) | 0.7 µM (≈ 0.999 µg/mL) | 3.90 mM | 222.2 | 108.1 | 3.0 |  |
| CC(C)C[C@H](NC(=O)[C@H](CCCCN)NC(=O)[C@H](CCCCN)NC(=O)[C@H](Cc1ccccc1)N(C)C(=O)[C@H](CC(C)C)NC(=O)[C@H](CCCCN)NC(=O)[C@H](CCCCN)NC(=O)[C@H](Cc1ccccc1)N(C)C(=O)[C@H](CC(C)C)NC(=O)[C@@H](N)CCCCN)C(=O)N[C@@H](Cc1ccccc1)C(=O)N[C@@H](CCCCN)C(N)=O [TA4(3,7-NMePhe), KL(NMeF)KKL(NMeF)KKLFK-NH2] (H-KL[NMeF]KKL[NMeF]KKLFK-NH2; N-terminus assumed) | 86.6 ± 7.35 µM | 10.0 µM (≈ 16 µg/mL) | 3.1 µM (≈ 4.94 µg/mL) | 129.0 |  | 14.1 | 80.2 µM (≈ 128 µg/mL) | 80.2 µM (≈ 128 µg/mL) | 5.0 | 40.0 µM (≈ 63.8 µg/mL) | 80.2 µM (≈ 128 µg/mL) | >400 µM | 5.0 µM (≈ 7.98 µg/mL) | 5.0 µM (≈ 7.98 µg/mL) | 1.2 µM (≈ 1.91 µg/mL) |  | 27.9 | 3.1 | 1.1 | ~86 µM and 86 µM |
